Values after ≈ are worked out from the molar mass of the structure shown.
Columns and labels:
[1] = Binding potential and rate of bone-targeting micelles on hydroxyapatite (HA)
Experimental: The solvent was evaporated in vacuum to yield a polymeric film on the wall of the flask. The thin polymeric film formed was then hydrated with a 10 mM phosphate buffered saline solution (PBS, pH 7.4) at 50° C. to set the micelles. The micelles were prepared as the method mentioned above for bone-targeting micelles: 0.9% […], 0.1% ALN-[…], 0.02% RB-[…]; for controls: 1% […], 0.02% RB-[…]). […] The mixtures were allowed to be gently agitated for 1, 5, 10, or 30 minutes at room temperature. […] The spectra of the supernatant was recorded on a UV-Visible spectrophotometer and compared with that of the initial micelle solution. Micelle containing RB-[…] but no ALN-[…] and RB were used as controls in this experiment.

[2] = Hornby et al. (2001); cited from earlier work
S. Mutans UA159 = test: In vitro inhibition of S. Mutans biofilm growth on HA discs; type: cell-based, Streptococcus Mutans; details: 48 hours incubation, compared to controls, FIG. 3
Experimental: S. Mutans UA159 was used in this study. S. Mutans were stored frozen at −80° C. A fresh culture was prepared before each experiment. A single colony of S. Mutans was inoculated into 3 mL of THYE (Todd-Hewitt Yeast Extract) medium and allow to growth statically overnight at 37° C. with 5% CO2. The overnight culture was diluted to a density of 5×10^4 CFU/ml with chemically defined biofilm media (CDM) (Biswas et al. (2007) J. Bacteriol., 189:6521-6531).
Autoclaved HA discs (7 mm×1.8 mm) were incubated with different micelle solutions, a farnesol solution in ethanol, or CDM in a 24-well plate for 1 hour to achieve maximum loading. The discs were then removed from the wells and vortex washed twice with saline for 10 seconds. The discs were subsequently washed with culture media to remove unbounded micelle. For the farnesol ethanol solution group, discs were washed twice with ethanol and then washed with saline. The HA discs were then transferred to 1 mL of diluted S. Mutans, and cultured statically for 48 hours to allow biofilm growth at 37° C. with 5% CO2.
On day three post bacteria inoculation, the HA discs were dip-washed 3 times with THYE media to remove loosely attached bacteria and then placed in 1 mL of THYE media. The surfaces of HA discs were gently scraped with a sterile spatula to harvest adherent cells. […]

Molecule: CCN(CC)c1ccc2c(-c3ccccc3C(=O)O)c3ccc(=[N+](CC)CC)cc-3oc2c1.[Cl-] [RB, Rhodamine B]
- binding to HA (in words) ([1]; 30 minutes incubation, FIG. 4A): slightly bound

Molecule: CC(C)=CCCC(C)=CCCC(C)=CCO [farnesol, 3,7,11-trimethyl-2,6,10-dodecatrien-1-ol]
- water solubility [2]: 1200 µM (≈ 267 µg/mL)
- inhibition of S. Mutans biofilm formation on HA discs (S. Mutans UA159): did not show inhibition

Molecule: Pluronic® 123-alendronate conjugate [ALN-P123]
- bound to HA ([1]; 10 minutes incubation, FIG. 4B): 45%
- bound to HA (ultimate binding equilibrium) ([1]; 30 minutes incubation): 55%

Source: US20110171144A1, “Functional Micelles for Hard Tissue Targeted Delivery of Chemicals” (priority 2008, published 2011)
